Measurements as given in patent publication US20120258938A1, “Enzymatic Production or Chemical Synthesis and Uses for 5,7-Dienes and UVB Conversion Products Thereof” (priority 2008, published 2012).

Experiments:
[1] = tested on: HaCaT keratinocytes; format: cell-based, human
Protocol: The cells were seeded in 96-well plate in F10 medium. Following 48 to 96 h incubation cells were fixed with 10% trichloroacetic acid, washed and then incubated with 0.04% sulforhodamine B (in 1% acetic acid) for 30 min. Following second wash with 1% acetic acid, dye incorporated into the cells was solubilized in 10 mM Tris by shaking for 30 min and the absorbance was measured at 570 nm.
Cells are treated with the test compound, washed, fixed and stained with the Sulphorhodamine B dye (SRB). The incorporated dye is then liberated from the cells in a tris-base solution. An increase or decrease in the number of cells (total biomass) results in a concomitant change in the amount of dye incorporated by the cells in the culture. Cells were seeded in growth medium at 10,000 per well in 96-well plates. After 12 h of culture the medium was changed to 5% charcoal-treated serum and cells cultured for a further 47 h with serial dilutions of 1α,20-dihydroxycholecalciferol (diluted as for as for thymidine incorporation). […] was then added to a final concentration of 20% from a 50% stock and cells incubated for 1 h. Cells were stained with SRB 0.4% (Sigma), washed with 1% acetic acid and dried. Trsi-HCl was added and the absorbance measured at 565 nm. The absorbance of blank medium only, was also measured also at 690 nm.

[2] = tested on: HaCaT keratinocytes; assay: [3H]-thymidine DNA synthesis in HaCaT keratinocytes; format: cell-based, human
Protocol: HaCaT keratinocytes were plated in 96-well plates at the density of 10,000 cells/well in DMEM (Cellgro, Herndon Va.) containing 5% charcoal treated fetal bovine serum (Hyclone, Logan, Utah), 1% antibiotic solution (PSA, Sigma, St. Louis, […].). Next day, media were changed and vehicle (ethanol) or secosteroids added. Cells were incubated with compounds for 48 hours. [^3H]-thymidine (Amersham Biosciences, Picataway, N.Y.) was added to the final concentration of 1 μCi/mL medium for last 12 hours of incubation. Media were then discarded, cells detached with trypsin and harvested on a glass fiber filter (Packard, Meriden, Calif.). Radioactivity was measured with a beta counter (Direct Beta-Counter Matrix 9600; Packard).
(§1) To measure DNA synthesis, keratinocytes, melanoma or prostate cancer cells were plated in 96-well plates. After overnight incubation tested compounds were added to the medium to achieve final concentrations 10^−7-10^−10 [M]. 100 μl of medium per well containing vitamin D3 compound was added to the cells. After 36 hours of incubation [3H]-thymidine (specific activity 88.0 Ci/mmol; Amersham Biosciences, Picataway, N.Y., USA) was added at 1 μCi/mL medium. After 12 hours, media were discarded, cells detached with trypsin and harvested on a glass fiber filter (Packard, Meriden, Calif., USA). 3H-radioactivity was measured with a beta counter (Direct Beta-Counter Matrix 9600; Packard).
HaCaT keratinocytes were plated out in 24-well plates, 50,000 cells/well. […] After 4 h media were discarded, cells washed with cold phosphate-buffered saline and incubated in 10% trichloroacetic acid for 30 min. Cells were washed again with phosphate-buffered saline, 100 μl 1.0 M NaOH was added to each well and plates incubated for 30 min at 30° C. The supernatant was collected and the ^3H-radioactivity measured by scintillation counting using a Direct Beta-Counter Matrix 9600 (Packard). The [^3H]-thymidine incorporation into DNA was measured separately for each well and the results entered into the calculation as the mean of 6 wells for each condition in a series of six experiments (n=36). Data were analyzed with GraphPad Prizm Version 4.0 (GraphPad Software Inc., San Diego, Calif., USA) using t tests. Differences were considered significant when p<0.05.

[3] = tested on: CYP24; assay: Real-time RT PCR CYP24 mRNA in HaCaT keratinocytes; format: cell-based, human
Protocol: RNA was extracted as above. Reverse transcription was performed with Transcriptor First Strand cDNA Synthesis Kit (Roche, Nutley, N.J.). The primers (right: 5′-GCA GCT CGA CTG GAG TGA C-3′ (SEQ ID NO: 1) and left: 5′-CATCATGGCCATCAAAACAAT-3′(SEQ ID NO: 2)) and probe (cat. no. 04689135001) were designed with Universal Probe Library (Roche, Nutley, N.J.). Real-time PCR was performed using TaqMan PCR Master Mix at 50° C. for 2 min, 95° C. for 10 min and then 50 cycles (95° C. for 15 sec, 60° C. for 1 min). The data was collected on a Roche Light Cycler 480. The amounts of CYP24 were normalized using cyclophilin D as a housekeeping gene with comparative CT method.
The RNA from HaCaT keratinocytes treated with 1α,20-dihydroxycholecalciferol was isolated and RT PCR run as described in Example 1.

[4] = target: bovine CYP11A1 (Bos taurus, UniProt P00189); assay: Metabolism by CYP11A1 (P450scc) in phospholipid vesicles; format: in vitro ADME; conditions: first 2 min of incubation
Protocol: (§2) Adrenodoxin was added last to initiate the reaction.
(§3) Products and remaining substrate were extracted with dichloromethane, and measured by reverse phase HPLC as described before (12, 13b).

[5] = target: human CYP27B1 (Homo sapiens, UniProt O15528); assay: Metabolism by CYP27B1 in phospholipid vesicles; format: in vitro ADME; conditions: up to 10 min
Protocol: as §2, §3

[6] = tested on: neonatal human epidermal keratinocytes (HEKn); assay: [3H]-thymidine proliferation assay in HEKn; format: cell-based; conditions: 24 h, 0.1 nM
Protocol: Neonatal human epidermal keratinocytes (HEKn) were isolated form neonatal foreskin of African-American donors and grown in HKM (Lonza) medium supplemented with HKGF (Lonza) as described previously (8a,c). For the cell proliferation assay the cells from a third passage were seeded into 24-well plates (TPP, Switzerland) and grown until reaching ˜80% confluence. Secosteroids were dissolved in ethanol and then diluted in keratinocyte medium containing 0.1% BSA (Sigma). Cells were incubated for 24 h then 1 μCi/ml [^3H]-thymidine (Moravek Biochemicals Inc., Brea, Calif.) was added and cells were incubated for further 4 h. Excess of unbound thymidine was removed by washing cells with PBS. Cells were precipitated with 10% trichloroacetic acid (TCA) (Sigma) and then the precipitate dissolved with 1N NaOH. The solution was collected in vials and thymidine incorporation was determined in liquid scintillation counter (Beckman LS 6000, Santa Clara, Calif.).

[7] = tested on: neonatal epidermal melanocytes; assay: Proliferation of neonatal epidermal melanocytes; format: cell-based; conditions: 48 hours
[8] = tested on: involucrin; assay: Real-time RT PCR involucrin mRNA, normal human epidermal keratinocytes; format: cell-based; conditions: 10^−7 M, time dependant
Protocol: RNA was extracted using an Absolutely RNA RT-PCR Miniprep Kit (Stratagene, La Jolla, Calif.). Real time PCR and reverse transcription products were purchased from Applied Biosystems, Foster City, Calif. Reverse transcription was performed using Taqman® Reverse Transcription Reagents. The following PCR products were used: cytokeratin 14: Hs00265033_m1, involucrin: Hs00846307_s1, CYP27A1: Hs00168003_ml, CYP27B1: Hs00168017_ml, 18SrRNA: Hs99999901_s1. The reaction was performed with Taqman® Universal PCR Master Mix; data were collected on an ABI Prism 7700 and analyzed on Sequence Detector 1.9.1. Specific gene amounts were related to 18SrRNA by comparative CT method.

[9] = tested on: AbC1 hamster melanoma cells; assay: Proliferation (DNA synthesis) of AbC1; format: cell-based; conditions: AbC1, 72 h
Protocol: as §1
(§4) HaCaT keratinocytes were an incubated for 48 h (FIG. 48A) or 72 h (FIG. 48B) in the presence of graded concentrations of 20(OH)D2 and/or 1,25(OH)2D3. […] Data are shown as mean±SD (n 3); *, p<0.05; **, p<0.01.

[10] = tested on: human melanoma cells; assay: Melanoma colony formation (crystal violet, 7 days); format: cell-based; conditions: colonies over 0.2 mm and 0.5 mm
Description: Inhibitory effects of 20(OH)D2 (FIGS. 47A-47B) in comparison to 1,25(OH)2D3 (FIGS. 47C-47D) on the ability of human melanoma cells to form colonies was examined.

[11] = tested on: SKMEL-188 human melanoma cells; assay: Proliferation (DNA synthesis) of SKMEL-188; format: cell-based; conditions: SKMEL-188, 72 h
Protocol: as §1, §4

[12] = tested on: involucrin; assay: Involucrin protein fluorescence, normal human epidermal keratinocytes; format: cell-based; conditions: 10^−7 M
Protocol: Cells were seeded in 6-well Lab-Tek II chamber slides (Nalge Nunc, Inc., Naperville, Ill.). Cells were pre-incubated in Epilife medium with HKGS overnight and then stimulated with 20-hydroxycholecalciferol in Epilife medium with HKGS for 24 hours and then fixed with 4% paraformaldehyde in PBS for 10 minutes. The cells were permeabilized with 0.2% Triton-X 100 in PBS for 5 minutes and blocked with 1% bovine serum albumine (BSA; in PBS) for 30 minutes. The cells were incubated consecutively with mouse anti-human involucrin antibody (Novocastra, Newcastle upon Tyne, UK) for 3 hours, anti-mouse-fluorescein isothiocyanate (FITC) conjugate (Novocastra, Newcastle upon Tyne, UK) for 1 hour in buffer containing 1% BSA in PBS. The slides were extensively washed with PBS between stainings and mounted with Vectashield mounting medium with propidium iodide (Vector Laboratories, Burlingame, Calif.). Slides not incubated with primary antibody were used as background controls. Slides were viewed with NIKON Eclipse TE300 microscope (Melville, N.Y.).
Data are shown as mean±SD (n=10-20). **, p<0.01. ***, p<0.001.

[13] = tested on: immortalized normal epidermal melanocytes (PIG1 line); assay: Proliferation of PIG1 melanocytes; format: cell-based; conditions: PIG1, 72 h
[14] = substrate: C=C1CC[C@H](O)C/C1=C/C=C1\CCC[C@]2(C)[C@@H]([C@H](C)CCCC(C)C)CC[C@@H]12; assay: cells, lysate or membranes named; conditions: other: cyclodextrin; 37.0 °C

Chain of bovine CYP11A1 (P00189 40-520): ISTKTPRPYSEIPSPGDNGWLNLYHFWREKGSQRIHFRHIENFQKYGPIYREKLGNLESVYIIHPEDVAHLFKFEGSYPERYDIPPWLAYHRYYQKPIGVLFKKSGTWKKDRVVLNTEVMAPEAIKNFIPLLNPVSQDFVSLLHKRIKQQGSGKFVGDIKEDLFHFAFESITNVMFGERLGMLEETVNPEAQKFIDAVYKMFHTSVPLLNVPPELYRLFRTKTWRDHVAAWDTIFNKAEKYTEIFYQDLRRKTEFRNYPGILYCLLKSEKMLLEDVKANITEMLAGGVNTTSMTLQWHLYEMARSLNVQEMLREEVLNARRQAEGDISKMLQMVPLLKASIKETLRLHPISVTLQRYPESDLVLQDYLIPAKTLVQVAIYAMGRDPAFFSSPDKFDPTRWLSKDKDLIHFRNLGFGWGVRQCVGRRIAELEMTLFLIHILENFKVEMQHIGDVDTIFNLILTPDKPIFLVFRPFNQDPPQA
Chain of human CYP27B1 (O15528 whole entry): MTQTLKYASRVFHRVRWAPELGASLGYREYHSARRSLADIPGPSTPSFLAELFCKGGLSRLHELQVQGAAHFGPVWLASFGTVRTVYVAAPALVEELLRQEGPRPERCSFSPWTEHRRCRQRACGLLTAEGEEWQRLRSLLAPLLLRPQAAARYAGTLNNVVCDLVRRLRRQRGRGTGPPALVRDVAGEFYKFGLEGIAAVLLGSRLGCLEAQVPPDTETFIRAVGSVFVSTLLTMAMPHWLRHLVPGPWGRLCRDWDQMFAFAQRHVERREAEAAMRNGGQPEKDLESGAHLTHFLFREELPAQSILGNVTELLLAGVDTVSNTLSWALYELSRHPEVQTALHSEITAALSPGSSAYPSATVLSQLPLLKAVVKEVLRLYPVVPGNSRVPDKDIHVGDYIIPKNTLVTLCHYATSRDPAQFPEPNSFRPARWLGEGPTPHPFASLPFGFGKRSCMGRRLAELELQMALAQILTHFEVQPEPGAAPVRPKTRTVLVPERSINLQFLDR

**Q.** Which “number of viable cells (sulforhodamine B)” value [1] does the source give for `C=C1C(=CC=C2CCCC3(C)C2CCC3C(C)(O)CCCC(C)C)CC(O)CC1O` (stereo not drawn) [1α,20-dihydroxycholecalciferol, (5Z,7E)-9,10-secocholesta-5,7,10(19)-triene-1α,3β,20-triol] here?
**A.** Its value is “caused a decrease in number of viable cells”.

**Q.** And the “decrease in DNA synthesis” value ([2]; 0.1 nM)?
**A.** Its value is 30%.

**Q.** What about the “decrease in DNA synthesis” value ([2]; 10 nM) of the same molecule?
**A.** The value was 50%.

**Q.** And the “keratinocyte proliferation compared with 1α,25-dihydroxycholecalciferol” value ([2]; HaCaT, 48 h)?
**A.** The value was “inhibit keratinocyte proliferation more potently than the control compound”.

**Q.** What about the “CYP24 mRNA level” value ([3]; 0.1 μM, 6 h) of the same molecule?
**A.** Its value is “Modest stimulation”.

**Q.** And the “CYP24 mRNA level” value ([3]; 0.1 μM, 24 h)?
**A.** Its value is “the effect was lost by 24 h”.

**Q.** What about the “CYP24 mRNA level” value ([3]; 1 μM, 6 h and 24 h) of the same molecule?
**A.** The value was “markedly increased the Cyp 24 mRNA level”.

**Q.** What does the source list for `C=C1CCC(O)CC1=CC=C1CCCC2(C)C1CCC2C(C)(O)CCCC(C)C` (stereo not drawn) [20R(OH)D3, (5Z,7E)-9,10-secocholesta-5,7,10(19)-triene-3β,20R-diol]?
**A.** substrate consumed [4]: 58%; metabolism by CYP27B1 [5]: metabolized to a single product at comparable initial rates; thymidine incorporation into DNA [6]: slightly stimulated thymidine incorporation into DNA

**Q.** What does the source list for “(5Z,7E,22E)-9,10-secoergosta-5,7,9(10),22-tetraene-3β,20-diol [20(OH)D2]”?
**A.** proliferation [7]: Dose dependent inhibition of the proliferation; involucrin gene expression [8]: induced time dependant involucrin gene expression; proliferation [9]: Dose dependent inhibition of the proliferation; melanoma cell colony formation compared with 1,25(OH)2D3 [10]: Inhibits Melanoma Cell Colony Formation Better than 1.25 OH 2D3; proliferation [11]: Dose dependent inhibition of the proliferation; involucrin protein expression [12]: increased expression of involucrin protein; proliferation [13]: Dose dependent inhibition of the proliferation

B1: CYP27A1 (Homo sapiens) (protein)
chain: ALPSDKATGAPGAGPGVRRRQRSLEEIPRLGQLRFFFQLFVQGYALQLHQLQVLYKAKYGPMWMSYLGPQMHVNLASAPLLEQVMRQEGKYPVRNDMELWKEHRDQHDLTYGPFTTEGHHWYQLRQALNQRLLKPAEAALYTDAFNEVIDDFMTRLDQLRAESASGNQVSDMAQLFYYFALEAICYILFEKRIGCLQRSIPEDTVTFVRSIGLMFQNSLYATFLPKWTRPVLPFWKRYLDGWNAIFSFGKKLIDEKLEDMEAQLQAAGPDGIQVSGYLHFLLASGQLSPREAMGSLPELLMAGVDTTSNTLTWALYHLSKDPEIQEALHEEVVGVVPAGQVPQHKDFAHMPLLKAVLKETLRLYPVVPTNSRIIEKEIEVDGFLFPKNTQFVFCHYVVSRDPTAFSEPESFQPHRWLRNSQPATPRIQHPFGSVPFGYGVRACLGRRIAELEMQLLLARLIQKYKVVLAPETGELKSVARIVLVPNKKVGLQFLQRQC
**Q.** How did the Km [14] turn out when B1 was run?
**A.** The Km was 10.7 ± 3.1 µM.
